Assays:
Format in all cases: cell-based
A498 = test: NCI DTP cell line screen (SRB), Renal Cancer
Experimental: (§1) Screening of compounds 70 and 71 against several cancer cell lines The human tumor cell lines of the cancer screening panel are grown in RPMI 1640 medium containing 5% fetal bovine serum and 2 mM L-glutamine. For a typical screening experiment, cells are inoculated into 96 well microtiter plates in 100 μL at plating densities ranging from 5,000 to 40,000 cells/well depending on the doubling time of individual cell lines. After cell inoculation, the microtiter plates are incubated at 37° C., 5% CO2, 95% air and 100% relative humidity for 24 h prior to addition of experimental drugs.
(§2) After 24 h, two plates of each cell line are fixed in situ with TCA, to represent a measurement of the cell population for each cell line at the time of drug addition (Tz). Experimental drugs are solubilized in dimethyl sulfoxide at 400-fold the desired final maximum test concentration and stored frozen prior to use. At the time of drug addition, an aliquot of frozen concentrate is thawed and diluted to twice the desired final maximum test concentration with complete medium containing 50 μg/ml gentamicin. Additional four, 10-fold or ½ log serial dilutions are made to provide a total of five drug concentrations plus control. Aliquots of 100 μl of these different drug dilutions are added to the appropriate microtiter wells already containing 100 μl of medium, resulting in the required final drug concentrations.
(§3) Following drug addition, the plates are incubated for an additional 48 h at 37° C., 5% CO2, 95% air, and 100% relative humidity. For adherent cells, the assay is terminated by the addition of cold TCA. Cells are fixed in situ by the gentle addition of 50 μl of cold 50% (w/v) TCA (final concentration, 10% TCA) and incubated for 60 minutes at 4° C. The supernatant is discarded, and the plates are washed five times with tap water and air dried. Sulforhodamine B (SRB) solution (100 μl) at 0.4% (w/v) in 1% acetic acid is added to each well, and plates are incubated for 10 minutes at room temperature. After staining, unbound dye is removed by washing five times with 1% acetic acid and the plates are air dried. Bound stain is subsequently solubilized with 10 mM trizma base, and the absorbance is read on an automated plate reader at a wavelength of 515 nm. For suspension cells, the methodology is the same except that the assay is terminated by fixing settled cells at the bottom of the wells by gently adding 50 μl of 80% TCA (final concentration, 16% TCA). Using the seven absorbance measurements [time zero, (Tz), control growth, (C), and test growth in the presence of drug at the five concentration levels (Ti)], the percentage growth is calculated at each of the drug concentrations levels. Percentage growth inhibition is calculated as: [(Ti−Tz)/(C−Tz)]×100 for concentrations for which Ti>/=Tz [(Ti−Tz)/Tz]×100 for concentrations for which Ti<Tz
(§4) Three dose response parameters are calculated for each experimental agent. […] The drug concentration resulting in total growth inhibition (TGI) is calculated from Ti=Tz. […] Values are calculated for each of these three parameters if the level of activity is reached; however, if the effect is not reached or is exceeded, the value for that parameter is expressed as greater or less than the maximum or minimum concentration tested.
(§5) The methods described were used to test compounds 70 and 71 on a panel of sixty cell lines under a screening service provided by the Developmental Therapeutics Program at the National Institutes of Health. Shown in FIG. 1C are 1, RPMI-8226 leukemia cells; 2; NCI-H322M non-small cell lung cancer cells; 3, HT29 colon cancer cells; 4, U251 CNS cancer cells; 5, SK-MEL-28 melanoma cancer cells; 6, SK-OV-3 ovarian cancer cells; 7, RXF 393 renal cancer cells; 8, PC-3 prostate cancer cells; 9, MDA-MB-231 breast cancer cells.

TK-10 = test: NCI DTP cell line screen (SRB), Renal Cancer
Experimental: as §1, §2, §3, §4, §5

SN12C = test: NCI DTP cell line screen (SRB), Renal Cancer
Experimental: as §1, §2, §3, §4, §5

SK-MEL-28 = test: NCI DTP cell line screen (SRB), Melanoma
Experimental: as §1, §2, §3, §4, §5

NCI/ADR-RES = test: NCI DTP cell line screen (SRB), Breast Cancer
Experimental: as §1, §2, §3, §4, §5

MDA-MB-231/ATCC = test: NCI DTP cell line screen (SRB), Breast Cancer
Experimental: as §1, §2, §3, §4, §5

T-47D = test: NCI DTP cell line screen (SRB), Breast Cancer
Experimental: as §1, §2, §3, §4, §5

HS 578T = test: NCI DTP cell line screen (SRB), Breast Cancer
Experimental: as §1, §2, §3, §4, §5

`NCC(=O)Nc1ccc(-n2nc(C(F)(F)F)cc2-c2ccc3c(ccc4ccccc43)c2)cc1` [Compound 70, 2-Amino-N-{4-[5-(2-phenanthrenyl)-3-(trifluoromethyl)-1H-pyrazol-1-yl]-phenyl}-acetamide] was tested, and the TGI (A498) was 5.75E−06, the “Percent Growth” value (A498; Log10 Concentration −4.0) was −54% and the “Percent Growth” value (A498; Log10 Concentration −5.0) was −30%. For the same compound, the “Percent Growth” value (A498; Log10 Concentration −6.0) was 95%, the “Percent Growth” value (A498; Log10 Concentration −7.0) was 126% and the “Percent Growth” value (A498; Log10 Concentration −8.0) was 98%. The TGI (TK-10) was 3.10E−06, the “Percent Growth” value (TK-10; Log10 Concentration −4.0) was −70% and the “Percent Growth” value (TK-10; Log10 Concentration −5.0) was −80%. The “Percent Growth” value (TK-10; Log10 Concentration −6.0) was 77%, the “Percent Growth” value (TK-10; Log10 Concentration −7.0) was 100% and the “Percent Growth” value (TK-10; Log10 Concentration −8.0) was 102%. For the same compound, the TGI (SN12C) was 3.51E−06, the “Percent Growth” value (SN12C; Log10 Concentration −4.0) was −47% and the “Percent Growth” value (SN12C; Log10 Concentration −5.0) was −65%. The “Percent Growth” value (SN12C; Log10 Concentration −6.0) was 78%, the “Percent Growth” value (SN12C; Log10 Concentration −7.0) was 94% and the “Percent Growth” value (SN12C; Log10 Concentration −8.0) was 96%. The TGI (SK-MEL-28) was 2.64E−06, the “Percent Growth” value (SK-MEL-28; Log10 Concentration −4.0) was −59% and the “Percent Growth” value (SK-MEL-28; Log10 Concentration −5.0) was −87%. For the same compound, the “Percent Growth” value (SK-MEL-28; Log10 Concentration −6.0) was 63%, the “Percent Growth” value (SK-MEL-28; Log10 Concentration −7.0) was 83% and the “Percent Growth” value (SK-MEL-28; Log10 Concentration −8.0) was 94%. For the same compound, the TGI (NCI/ADR-RES) was 2.85E−06, the “Percent Growth” value (NCI/ADR-RES; Log10 Concentration −4.0) was −62% and the “Percent Growth” value (NCI/ADR-RES; Log10 Concentration −5.0) was −59%. The “Percent Growth” value (NCI/ADR-RES; Log10 Concentration −6.0) was 49%, the “Percent Growth” value (NCI/ADR-RES; Log10 Concentration −7.0) was 98% and the “Percent Growth” value (NCI/ADR-RES; Log10 Concentration −8.0) was 98%. For the same compound, the TGI (MDA-MB-231/ATCC) was 2.77E−06, the “Percent Growth” value (MDA-MB-231/ATCC; Log10 Concentration −4.0) was −52% and the “Percent Growth” value (MDA-MB-231/ATCC; Log10 Concentration −5.0) was −73%. The “Percent Growth” value (MDA-MB-231/ATCC; Log10 Concentration −6.0) was 58%, the “Percent Growth” value (MDA-MB-231/ATCC; Log10 Concentration −7.0) was 71% and the “Percent Growth” value (MDA-MB-231/ATCC; Log10 Concentration −8.0) was 100%. The TGI (T-47D) was 4.21E−06, the “Percent Growth” value (T-47D; Log10 Concentration −4.0) was −44% and the “Percent Growth” value (T-47D; Log10 Concentration −5.0) was −52%. For the same compound, the “Percent Growth” value (T-47D; Log10 Concentration −6.0) was 86%, the “Percent Growth” value (T-47D; Log10 Concentration −7.0) was 109% and the “Percent Growth” value (T-47D; Log10 Concentration −8.0) was 84%. For the same compound, the TGI (HS 578T; HS 578T) was 5.25E−06, the “Percent Growth” value (HS 578T; HS 578T, Log10 Concentration −4.0) was −38% and the “Percent Growth” value (HS 578T; HS 578T, Log10 Concentration −5.0) was −34%. For the same compound, the “Percent Growth” value (HS 578T; HS 578T, Log10 Concentration −6.0) was 88%, the “Percent Growth” value (HS 578T; HS 578T, Log10 Concentration −7.0) was 99% and the “Percent Growth” value (HS 578T; HS 578T, Log10 Concentration −8.0) was 105%. The CC50 (HS 578T; Homo sapiens, Hs-578T, read-out: LC50) was over 100 µM.

— patent publication US8541460B2, “PDK-1/Akt signaling inhibitors” (The Ohio State University, priority 2003, dated 2013)
